Data as given in US20150105252A1, “SUBSTITUTED PYRAZOLES AS HERBICIDES” (E I DU PONT DE NEMOURS AND COMPANY, priority 2013, published 2015).

Assays:
chamomile = assay: Test D preemergence; type: in vivo, Matricaria inodora; conditions: scale 0 to 100
Procedure, shortened: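 Pre: sown in silt loam, sprayed at once. Post: grown in peat-moss/vermiculite mix, sprayed at 1–4 leaves (2–18 cm). Formulation: non-phytotoxic solvent + surfactant. Read-out: visual 0–100 vs controls, 14–21 d.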

pigweed, palmer = assay: Test F postemergence; type: in vivo, Amaranthus palmeri; conditions: scale 0 to 100
Description: Seeds of plant species selected from corn (Zea mays), soybean (Glycine max), velvetleaf (Abutilon theophrasti), lambsquarters (Chenopodium album), wild poinsettia (Euphorbia heterophylla), pigweed, palmer (palmer pigweed, Amaranthus palmeri), common waterhemp (Amaranthus rudis), surinam grass (Brachiaria decumbens), large crabgrass (Digitaria sanguinalis), crabgrass, Brazil (Brazilian crabgrass, Digitaria horizontalis), fall panicum (Panicum dichotomiflorum), giant foxtail (Setaria faberii), green foxtail (Setaria viridis), goosegrass (Eleusine indica), johnsongrass (Sorghum halepense), common ragweed (Ambrosia elation), barnyardgrass (Echinochloa crus-galli), southern sandbur (Cenchrus echinatus), arrowleaf sida (Sida rhombifolia), Italian ryegrass (Lolium multiflorum), dayflower, VA (Virginia (VA) dayflower, Commelina virginica), field bindweed (Convolvulus arvensis), cocklebur (common cocklebur, Xanthium strumarium), morningglory (Ipomoea coccinea), nightshade (eastern black nightshade, Solanum ptycanthum), kochia (Kochia scoparia), yellow nutsedge (Cyperus esculentus), and hairy beggarticks (Bidens pilosa), were planted into a silt loam soil and treated preemergence with test chemicals formulated in a non-phytotoxic solvent mixture which included a surfactant.
At the same time, plants from these crop and weed species and also horseweed (Canada horseweed, Conyza canadensis), smartweed (ladysthumb smartweed, Polygonum persicaria), waterhemp_RES1, (ALS & Triazine resistant common waterhemp, Amaranthus rudis), and waterhemp_RES2, (ALS & HPPD resistant common waterhemp, Amaranthus rudis) were treated with postemergence applications of test chemicals formulated in the same manner. Plants ranged in height from 2 to 18 cm for postemergence treatments (1- to 4-leaf stage). Treated plants and controls were maintained in a greenhouse for 14 to 21 days, after which time all species were compared to controls and visually evaluated. Plant response ratings, summarized in Table F, are based on a scale of 0 to 100 where 0 is no effect and 100 is complete control. A dash (-) response means no test result.

## CCOc1cc(C(=O)NC(C)C)nn1Cc1ccnc(C(F)(F)F)c1 [Compound 188]
chamomile; 31 g ai/ha
  Plant response rating, Chamomile: 100
chamomile; 62 g ai/ha
  Plant response rating, Chamomile: 100
chamomile; 125 g ai/ha
  Plant response rating, Chamomile: 100
chamomile; 250 g ai/ha
  Plant response rating, Chamomile: 100
pigweed, palmer; Postemergence, 31 g ai/ha
  Plant response rating, Pigweed, Palmer: 50
pigweed, palmer; Postemergence, 125 g ai/ha
  Plant response rating, Pigweed, Palmer: 50
pigweed, palmer; Postemergence, 250 g ai/ha
  Plant response rating, Pigweed, Palmer: 60
pigweed, palmer; postemergence, 62 g ai/ha
  Plant response rating, Pigweed, Palmer: 50
pigweed, palmer; postemergence, 500 g ai/ha
  Plant response rating, Pigweed, Palmer: 70
